US6737383B1, “Herbicidal oxadiazolidines” (priority 1999, dated 2004)

Columns and labels:
green foxtail = experiment: Test E green foxtail; type: in vivo, Setaria viridis; details: Preemergence
velvetleaf = experiment: Test B pre/postemergence velvetleaf; type: in vivo, Abutilon theophrasti
Outline: (§1)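 Response is a visual 0-to-10 score relative to untreated plants, where 0 means no effect and 10 means complete control, taken twelve to sixteen days after application. Treatments went onto soil at planting and onto foliage of 1- to 4-leaf plants, using a surfactant-containing non-phytotoxic solvent.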

rice = experiment: Test B flood test rice; type: in vivo, Oryza sativa; details: for Plant response rating, Rice (0 to 10 scale, 0 is no effect, 10 is complete control) / Rice plant response rating (0 to 10 scale, 0 is no effect, 10 is complete control): visual evaluation after twelve to sixteen days; for Rice plant response rating (0 to 10 scale, 0 is no effect, 10 is complete control): under heading Pre-emergence
Outline: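 Plants were grown to the 2-leaf stage before treatment with test chemical, then held in a greenhouse for twelve to sixteen days. Injury was visually rated against untreated controls on a 0–10 scale, where 0 is no effect and 10 is complete control.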

blackgrass = experiment: Test E blackgrass; type: in vivo, Alopecurus myosuroides; details: Preemergence
Italian ryegrass = experiment: Test E Italian ryegrass; type: in vivo, Lolium multiflorum; details: Preemergence
winter wheat = experiment: Test E winter wheat; type: in vivo, Triticum aestivum; details: Preemergence
corn = experiment: Test B pre/postemergence corn; type: in vivo, Zea mays
Outline: as §1

wild oat = experiment: Test E wild oat; type: in vivo, Avena fatua; details: Preemergence
crabgrass = experiment: Test B pre/postemergence crabgrass; type: in vivo, Digitaria sanguinalis
Outline: as §1

winter barley = experiment: Test E winter barley; type: in vivo, Hordeum vulgare; details: Preemergence
[1] = Rate 500 g/ha, 0 to 100 scale where 0 is no effect and 100 is complete control
[2] = Preemergence, Rate 62 g/ha, scale of 0 to 10 where 0 is no effect and 10 is complete control
[3] = Preemergence, Rate 250 g/ha, scale 0 to 10, 0 is no effect, 10 is complete control
[4] = Preemergence, Rate 500 g/ha, scale 0 (no effect) to 10 (complete control)
[5] = Preemergence, Rate 500 g/ha, scale of 0 to 10 where 0 is no effect and 10 is complete control
[6] = Rate 62 g/ha, Postemergence, scale of 0 to 10 where 0 is no effect and 10 is complete control
[7] = Rate 125 g/ha, Postemergence, scale 0 to 10
[8] = Preemergence, Rate 125 g/ha, 0 is no effect, 10 is complete control
[9] = Rate 500 g/ha, Postemergence, scale 0 to 10
[10] = Postemergence, Rate 62 g/ha, scale 0 to 10, 0 is no effect, 10 is complete control
[11] = Postemergence, Rate 125 g/ha, scale of 0 to 10 where 0 is no effect and 10 is complete control
[12] = Preemergence, Rate 125 g/ha, scale of 0 to 10 where 0 is no effect and 10 is complete control
[13] = Preemergence, Rate 250 g/ha, scale 0 to 10 (0 no effect, 10 complete control)
[14] = Rate 500 g/ha, Postemergence, scale 0 to 10, 0 is no effect, 10 is complete control
[15] = Rate 62 g/ha, flood test species, Pre-emergence
[16] = Rate 125 g/ha, flood test species
[17] = Rate 250 g/ha, Pre-emergence (flood test species), scale 0 to 10, 0 is no effect, 10 is complete control
[18] = Rate 500 g/ha, Pre-emergence section of Table B, 0 to 10 scale (0 no effect, 10 complete control)
[19] = Postemergence, Rate 250 g/ha, scale of 0 to 10, 0 is no effect, 10 is complete control

CCc1cccc(C)c1-n1c(=O)on(C(=O)N(c2ccc(F)cc2)C(C)C)c1=O [Compound 201]
40: Wheat (winter) plant response rating (0 to 100 scale) (winter wheat; Rate 250 g/ha) | Plant response rating, Wheat (winter) (winter wheat; [1]) | Plant response rating, Wild oat (wild oat; [1])
30: Blackgrass plant response rating (0 to 100 scale) (blackgrass; Rate 250 g/ha)
0: Velvetleaf plant response rating (velvetleaf; [2]) | Velvetleaf plant response rating (velvetleaf; [3]) | Velvetleaf plant response rating (velvetleaf; [4]) | Plant response rating, Velvetleaf (velvetleaf; [5]) | Velvetleaf plant response rating (velvetleaf; [6]) | Velvetleaf plant response rating (velvetleaf; [7]) | Rice plant response rating (rice; Rate 62 g/ha, headed Pre-emergence (flood test species), scale 0 to 10 (0 no effect, 10 complete control)) | Rice plant response rating (rice; Rate 125 g/ha, Pre-emergence, flood test species, scale 0 to 10 where 0 is no effect and 10 is complete control) | Rice plant response rating (rice; Rate 250 g/ha, Pre-emergence, flood-test species, scale 0 to 10, 0 is no effect, 10 is complete control) | Plant response rating, Rice (rice; Rate 500 g/ha, headed Pre-emergence (flood test species), scale 0 to 10 (0 no effect, 10 complete control)) | Corn plant response rating (corn; [2]) | Corn plant response rating (0 to 10 scale) (corn; [8]) | Corn plant response rating (corn; [3]) | Corn plant response rating (corn; [4]) | Plant response rating, Corn (corn; [5]) | Corn plant response rating (corn; [6]) | Corn plant response rating (corn; [7]) | Plant response rating (0 to 10; 0 is no effect, 10 is complete control), Corn (corn; Rate 250 g/ha, Postemergence) | Corn plant response rating (corn; [9]) | Crabgrass plant response rating (crabgrass; [2]) | Crabgrass plant response rating (crabgrass; [6]) | Crabgrass plant response rating (crabgrass; [7]) | Plant response rating (0 to 10; 0 is no effect, 10 is complete control), Crabgrass (crabgrass; Rate 250 g/ha, Postemergence) | Crabgrass plant response rating (crabgrass; [9]) | Barley (winter) plant response rating (0 to 100 scale) (winter barley; Rate 250 g/ha)
4: Crabgrass plant response rating (crabgrass; [4])
20: Plant response rating, Barley (winter) (winter barley; [1])
1: Plant response rating (0 to 10; 0 is no effect, 10 is complete control), Velvetleaf (velvetleaf; Rate 250 g/ha, Postemergence)
5: Crabgrass plant response rating (0 to 10 scale) (crabgrass; [8])
60: Plant response rating, I. Ryegrass (Italian ryegrass; [1])
50: Green foxtail plant response rating (0 to 100 scale) (green foxtail; Rate 250 g/ha) | Plant response rating, Blackgrass (blackgrass; [1]) | I. Ryegrass plant response rating (0 to 100 scale) (Italian ryegrass; Rate 250 g/ha) | Wild oat plant response rating (0 to 100 scale) (wild oat; Rate 250 g/ha)
9: Crabgrass plant response rating (crabgrass; [3]) | Plant response rating, Crabgrass (crabgrass; [5])
65: Plant response rating, Green foxtail (green foxtail; [1])

CC(C)N(C(=O)n1oc(=O)n(CC2CCCCO2)c1=O)c1ccccc1 (stereo not shown) [Compound 659]
1: Plant response rating, Crabgrass (crabgrass; [10])
3: Velvetleaf plant response rating (velvetleaf; [11])
9: Plant response rating, Corn (corn; [5])
6: Plant response rating, Velvetleaf (velvetleaf; [13]) | Velvetleaf plant response rating (velvetleaf; [14]) | Corn plant response rating (corn; [14]) | Crabgrass plant response rating (crabgrass; [11]) | Crabgrass plant response rating (crabgrass; [19])
0: Plant response rating, Velvetleaf (velvetleaf; [10]) | Velvetleaf plant response rating (velvetleaf; [2]) | Velvetleaf plant response rating (velvetleaf; [12]) | Plant response rating, Rice (0 to 10 scale, 0 is no effect, 10 is complete control) (rice; [15]) | Rice plant response rating (0 to 10 scale, 0 is no effect, 10 is complete control) (rice; [16]) | Rice plant response rating (rice; [17]) | Rice plant response rating (rice; [18]) | Plant response rating, Corn (corn; [10]) | Corn plant response rating (corn; [11]) | Corn plant response rating (corn; [2]) | Corn plant response rating (corn; [12])
4: Corn plant response rating (corn; [19])
7: Plant response rating, Velvetleaf (velvetleaf; [5]) | Plant response rating, Corn (corn; [13])
8: Crabgrass plant response rating (crabgrass; [2]) | Crabgrass plant response rating (crabgrass; [12]) | Crabgrass plant response rating (crabgrass; [14])
10: Plant response rating, Crabgrass (crabgrass; [5])

CC(C)N(C(=O)n1oc(=O)n(CC2CCCCO2)c1=O)c1ccc(Cl)cc1 (stereo not shown) [Compound 660]
9: Plant response rating, Crabgrass (crabgrass; [5])
7: Crabgrass plant response rating (crabgrass; [12]) | Crabgrass plant response rating (crabgrass; [14])
3: Velvetleaf plant response rating (velvetleaf; [14])
4: Crabgrass plant response rating (crabgrass; [2])
2: Velvetleaf plant response rating (velvetleaf; [11]) | Corn plant response rating (corn; [14])
5: Crabgrass plant response rating (crabgrass; [19])
1: Crabgrass plant response rating (crabgrass; [11])
0: Plant response rating, Velvetleaf (velvetleaf; [10]) | Velvetleaf plant response rating (velvetleaf; [2]) | Velvetleaf plant response rating (velvetleaf; [12]) | Plant response rating, Velvetleaf (velvetleaf; [13]) | Plant response rating, Velvetleaf (velvetleaf; [5]) | Plant response rating, Rice (0 to 10 scale, 0 is no effect, 10 is complete control) (rice; [15]) | Rice plant response rating (0 to 10 scale, 0 is no effect, 10 is complete control) (rice; [16]) | Rice plant response rating (rice; [17]) | Rice plant response rating (rice; [18]) | Plant response rating, Corn (corn; [10]) | Corn plant response rating (corn; [11]) | Corn plant response rating (corn; [19]) | Corn plant response rating (corn; [2]) | Corn plant response rating (corn; [12]) | Plant response rating, Corn (corn; [13]) | Plant response rating, Corn (corn; [5]) | Plant response rating, Crabgrass (crabgrass; [10])
8: Plant response rating, Crabgrass (crabgrass; [13])

CC[C@H](C)n1c(=O)on(C(=O)N(c2ccc(Cl)cc2)C(C)C)c1=O [Compound 664]
8: Crabgrass plant response rating (crabgrass; [12])
6: Velvetleaf plant response rating (velvetleaf; [14])
5: Plant response rating, Velvetleaf (velvetleaf; [13]) | Plant response rating, Velvetleaf (velvetleaf; [5])
10: Plant response rating, Crabgrass (crabgrass; [5])
1: Crabgrass plant response rating (crabgrass; [11])
9: Crabgrass plant response rating (crabgrass; [19]) | Plant response rating, Crabgrass (crabgrass; [13]) | Crabgrass plant response rating (crabgrass; [14])
0: Plant response rating, Velvetleaf (velvetleaf; [10]) | Velvetleaf plant response rating (velvetleaf; [11]) | Velvetleaf plant response rating (velvetleaf; [2]) | Velvetleaf plant response rating (velvetleaf; [12]) | Plant response rating, Rice (0 to 10 scale, 0 is no effect, 10 is complete control) (rice; [15]) | Rice plant response rating (0 to 10 scale, 0 is no effect, 10 is complete control) (rice; [16]) | Rice plant response rating (rice; [17]) | Rice plant response rating (rice; [18]) | Plant response rating, Corn (corn; [10]) | Corn plant response rating (corn; [11]) | Corn plant response rating (corn; [19]) | Corn plant response rating (corn; [2]) | Corn plant response rating (corn; [12]) | Plant response rating, Corn (corn; [13]) | Plant response rating, Corn (corn; [5]) | Corn plant response rating (corn; [14]) | Plant response rating, Crabgrass (crabgrass; [10])
4: Crabgrass plant response rating (crabgrass; [2])
